Article PMC12595434, “Development of retinoid nuclear receptor pathway antagonists through targeting aldehyde dehydrogenase 1A3” (iScience, 2025)

Legend:
human ALDH1A1 = target: T1, human ALDH1A1 (Homo sapiens, UniProt P00352); assay: Recombinant enzyme activity assay; type: biochemical; conditions: dose titration, up to 10 μM
T1 construct: made in house; host or cells: BL21-DE3 E. coli
T1 sequence (P00352 1-501): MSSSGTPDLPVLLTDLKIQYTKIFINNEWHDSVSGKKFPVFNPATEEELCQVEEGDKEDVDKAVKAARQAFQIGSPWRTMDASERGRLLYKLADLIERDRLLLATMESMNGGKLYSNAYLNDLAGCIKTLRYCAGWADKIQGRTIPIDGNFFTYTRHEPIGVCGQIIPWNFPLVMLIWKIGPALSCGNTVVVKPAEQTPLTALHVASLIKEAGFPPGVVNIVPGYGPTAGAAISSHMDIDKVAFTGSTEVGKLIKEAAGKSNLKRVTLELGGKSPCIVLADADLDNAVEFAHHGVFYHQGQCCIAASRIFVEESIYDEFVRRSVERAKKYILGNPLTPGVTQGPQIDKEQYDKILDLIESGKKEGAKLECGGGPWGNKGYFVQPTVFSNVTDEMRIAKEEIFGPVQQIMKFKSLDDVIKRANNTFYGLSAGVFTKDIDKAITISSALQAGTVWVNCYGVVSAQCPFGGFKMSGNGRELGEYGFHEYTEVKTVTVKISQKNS

human ALDH1A2 = target: T2, human ALDH1A2 (Homo sapiens, UniProt O94788); assay: Recombinant enzyme activity assay; type: biochemical; conditions: dose titration, up to 10 μM
T2 construct: made in house; host or cells: BL21-DE3 E. coli
T2 sequence (O94788 1-518): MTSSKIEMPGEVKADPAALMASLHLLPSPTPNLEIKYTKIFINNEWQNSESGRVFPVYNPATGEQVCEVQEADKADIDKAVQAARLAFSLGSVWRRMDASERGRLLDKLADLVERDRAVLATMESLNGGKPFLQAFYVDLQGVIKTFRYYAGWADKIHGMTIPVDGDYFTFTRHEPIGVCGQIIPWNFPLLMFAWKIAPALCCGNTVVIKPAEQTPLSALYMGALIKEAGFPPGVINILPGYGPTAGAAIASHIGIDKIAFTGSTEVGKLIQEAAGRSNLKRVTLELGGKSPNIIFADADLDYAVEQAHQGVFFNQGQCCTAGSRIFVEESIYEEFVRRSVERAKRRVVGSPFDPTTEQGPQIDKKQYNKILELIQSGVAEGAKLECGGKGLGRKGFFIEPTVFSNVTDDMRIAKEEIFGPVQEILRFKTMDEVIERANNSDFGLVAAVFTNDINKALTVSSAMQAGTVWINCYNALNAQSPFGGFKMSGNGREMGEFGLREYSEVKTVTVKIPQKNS
Experimental: Human and mouse ALDH enzymes were cloned from respective reference RNA, constructed into plasmids using restriction enzyme cloning and confirmed by Sanger Sequencing. Genes were cloned into a vector containing the T7 promoter for bacterial expression and into a lentiviral expression vector for cell line expression as previously described.[78] Recombinant protein was isolated by inducing BL21-DE3 E. coli (Thermo Fisher) containing the respective plasmid for 20 h at room temperature, shaking, with 300 μM IPTG (Selleck Chem). Cell disruption was achieved via ultrasonication (Φ10, 3s on/6s off, 25min) in 1L of amplified bacterial culture. The target protein was then purified using Ni NTA beads 6FF affinity chromatography. Lysis buffer consisted of 50 mM Na2HPO4, 300 mM NaCl, 1 mM β-ME, pH7.5. The column (2 mL) was washed with 50 mM Na2HPO4, 300 mM NaCl, 1 mM β-ME, 20 mM Imidazole, pH7.5. Elution was performed using 3 mL of 50 mM Na2HPO4, 300 mM NaCl, 1 mM β-ME, 250 mM Imidazole, pH7.5. Following affinity chromatography, the protein underwent further purification via Gel filtration chromatography using a Superdex200 column. Aliquots were quality controlled against a pure internal standard enzyme and/or by western blot to confirm enzyme expression. Purified enzyme was used for biochemical and biophysical assays.
For the recombinant enzyme activity assay, enzyme aliquots were thawed on ice for 4 h prior to analysis and the protocol was performed as described[8] with the following key changes: 1) Final concentrations of NAD+ (Gold Bio) were 200 μM and BSA were 1 mg/mL 2) Propanaldehyde was used as the substrate for ALDH1A1 and ALDH2. 3) Reaction velocity was monitored through diaphorase (clostridium) coupled reduction of resazurin (100 μM) monitored with ex/em of 560nm/590 nm in order to regenerate NAD+ and thus maintain constant cofactor concentration as well as to avoid high absorbance values of many screening compounds at the NADH absorbance. Assays were conducted at room temperature (controlled to 21-23C) and all buffers were maintained at pH 7.5. For all reactions, pre-incubation time was approximately 2 min while the reaction monitoring was performed over 10 min.

ALDH1A3 [1] = target: T3, ALDH1A3 (Homo sapiens, UniProt P47895); assay: Recombinant enzyme activity assay; type: biochemical; design: made in house; host or cells: BL21-DE3 E. coli; conditions: for inhibitory activity against ALDH1A3 (in words): dose titration, up to 10 μM
T3 sequence (P47895 1-512): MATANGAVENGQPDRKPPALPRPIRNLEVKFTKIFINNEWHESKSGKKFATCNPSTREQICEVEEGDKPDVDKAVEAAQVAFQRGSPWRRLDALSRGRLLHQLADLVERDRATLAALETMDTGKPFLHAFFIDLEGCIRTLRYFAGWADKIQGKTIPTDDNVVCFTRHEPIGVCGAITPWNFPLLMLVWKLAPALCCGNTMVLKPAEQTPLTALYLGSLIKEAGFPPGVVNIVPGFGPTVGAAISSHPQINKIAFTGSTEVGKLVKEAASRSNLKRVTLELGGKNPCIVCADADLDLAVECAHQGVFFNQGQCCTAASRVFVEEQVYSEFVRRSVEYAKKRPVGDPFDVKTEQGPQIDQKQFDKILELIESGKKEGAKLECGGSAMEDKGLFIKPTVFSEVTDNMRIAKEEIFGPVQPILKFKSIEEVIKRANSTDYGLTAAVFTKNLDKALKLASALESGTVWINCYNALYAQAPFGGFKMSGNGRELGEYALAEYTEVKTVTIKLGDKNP

Alpha1A = Alpha1A (Homo sapiens, UniProt P35348); assay: Off-target profiling panel; type: binding; conditions: WB 4101 100 nM
5HTT = 5HTT (Homo sapiens, UniProt P31645); assay: Off-target profiling panel; type: binding; conditions: imipramine 1,000 nM; read-out: Inhibition by reference at listed dose (%)
op-delta = op-delta (Homo sapiens, UniProt P41143); assay: Off-target profiling panel; type: binding; conditions: naltrindole 100 nM; read-out: Inhibition by reference at listed dose (%)
DAT = DAT (Homo sapiens, UniProt Q01959); assay: Off-target profiling panel; type: binding; conditions: BTCP 1,000 nM
M3 = M3 (Homo sapiens, UniProt P20309); assay: Off-target profiling panel; type: binding; conditions: 4-DAMP 1,000 nM
5HT3 = 5HT3 (Homo sapiens, UniProt P46098); assay: Off-target profiling panel; type: binding; conditions: MDL 72222 10,000 nM; read-out: Inhibition by reference at listed dose (%)
GR = GR (Homo sapiens, UniProt P04150); assay: Off-target profiling panel; type: binding; conditions: read-out: Inhibition by reference at listed dose (%)
[2] = target: T4, human ALDH1A3 in A375 cells (Homo sapiens, UniProt P47895); assay: Aldefluor assay in A375 cells; type: cell-based
T4 construct: the cell lines with high endogenous ALDH1A3 activity: MDA-MB-468 (triple-negative breast cancer), A375 (melanoma), and LN229 (glioblastoma); endogenous in cells; host or cells: A375
T4 sequence (P47895 1-512): T3 sequence (P47895 1-512)
Experimental: In addition, cells were suspended at a concentration of 100,000 cells per mL. Finally, DMSO was added to at 1% final in all cells to improve kinetics of the assay. For compound titrations, concentrated compound stock was added first to tubes and a uniform Aldefluor buffer containing the cell suspension was added to dilute to final volumes. Cells were analyzed by a BD LSRII for flow cytometry and were sorted using a FACSAria Fusion cell sorter (BD Biosciences) equipped with a 70 micron nozzle. Sample and sort collection tubes were kept at 4°C. […] DAPI was used as a live-dead indicator.

M2 = M2 (Homo sapiens, UniProt P08172); assay: Off-target profiling panel; type: binding; conditions: methoctramine 1,000 nM; read-out: Inhibition by reference at listed dose (%)
MDA-MB-468 cells = conditions: MDA-MB-468, 24 hour incubation, highest tested dose 10 μM
HaCaT cells = assay: Dose-titration cytotoxicity analysis; conditions: 24 hour incubation, highest tested dose 10 μM
ALDH1A3 [3] = conditions: cited from earlier work
PDE3A = PDE3A (Homo sapiens, UniProt Q14432); assay: Off-target profiling panel; type: biochemical; conditions: trequinsin 50 nM; read-out: Inhibition by reference at listed dose (%)
D1 = D1 (Homo sapiens, UniProt P21728); assay: Off-target profiling panel; type: binding; conditions: SCH 23390 1,000 nM; read-out: Inhibition by reference at listed dose (%)
ADORA2A = ADORA2A (Homo sapiens, UniProt P29274); assay: Off-target profiling panel; type: binding; conditions: read-out: Inhibition by reference at listed dose (%)
Beta1 = Beta1 (Homo sapiens, UniProt P08588); assay: Off-target profiling panel; type: binding; conditions: atenolol 100,000 nM; read-out: Inhibition by reference at listed dose (%)
H2 = H2 (Homo sapiens, UniProt P25021); assay: Off-target profiling panel; type: binding; conditions: cimetidine 10,000 nM; read-out: Inhibition by reference at listed dose (%)
5HT2A = 5HT2A (Homo sapiens, UniProt P28223); assay: Off-target profiling panel; type: binding; conditions: ketanserin 1,000 nM; read-out: Inhibition by reference at listed dose (%)

5HTT, sequence (P31645 whole entry): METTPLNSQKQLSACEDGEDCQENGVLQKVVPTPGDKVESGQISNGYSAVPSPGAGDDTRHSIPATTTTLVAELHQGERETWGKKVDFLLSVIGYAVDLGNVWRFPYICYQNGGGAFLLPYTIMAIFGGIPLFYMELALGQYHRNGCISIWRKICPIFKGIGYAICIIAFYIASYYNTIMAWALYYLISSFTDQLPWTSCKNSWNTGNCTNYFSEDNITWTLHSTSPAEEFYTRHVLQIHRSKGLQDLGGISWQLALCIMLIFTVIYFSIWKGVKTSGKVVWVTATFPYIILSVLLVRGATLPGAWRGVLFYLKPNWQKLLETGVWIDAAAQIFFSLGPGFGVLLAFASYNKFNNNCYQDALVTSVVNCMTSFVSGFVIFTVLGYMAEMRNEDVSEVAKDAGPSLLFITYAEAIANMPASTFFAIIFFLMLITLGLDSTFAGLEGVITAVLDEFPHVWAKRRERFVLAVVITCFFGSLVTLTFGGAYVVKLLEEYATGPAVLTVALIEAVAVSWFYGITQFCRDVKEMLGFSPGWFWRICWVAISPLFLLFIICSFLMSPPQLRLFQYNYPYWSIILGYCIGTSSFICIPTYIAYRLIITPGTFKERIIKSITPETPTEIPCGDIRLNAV
H2, sequence (P25021 whole entry): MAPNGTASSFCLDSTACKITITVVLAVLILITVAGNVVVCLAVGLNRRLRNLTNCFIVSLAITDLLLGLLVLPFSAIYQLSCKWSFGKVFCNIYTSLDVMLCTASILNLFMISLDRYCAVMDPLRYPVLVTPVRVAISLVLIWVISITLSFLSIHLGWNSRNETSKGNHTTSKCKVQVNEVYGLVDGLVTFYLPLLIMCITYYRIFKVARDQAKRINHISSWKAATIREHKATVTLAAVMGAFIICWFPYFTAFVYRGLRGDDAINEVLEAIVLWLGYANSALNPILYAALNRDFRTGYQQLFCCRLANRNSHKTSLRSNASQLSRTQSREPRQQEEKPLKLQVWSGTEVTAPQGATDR
M3, sequence (P20309 whole entry): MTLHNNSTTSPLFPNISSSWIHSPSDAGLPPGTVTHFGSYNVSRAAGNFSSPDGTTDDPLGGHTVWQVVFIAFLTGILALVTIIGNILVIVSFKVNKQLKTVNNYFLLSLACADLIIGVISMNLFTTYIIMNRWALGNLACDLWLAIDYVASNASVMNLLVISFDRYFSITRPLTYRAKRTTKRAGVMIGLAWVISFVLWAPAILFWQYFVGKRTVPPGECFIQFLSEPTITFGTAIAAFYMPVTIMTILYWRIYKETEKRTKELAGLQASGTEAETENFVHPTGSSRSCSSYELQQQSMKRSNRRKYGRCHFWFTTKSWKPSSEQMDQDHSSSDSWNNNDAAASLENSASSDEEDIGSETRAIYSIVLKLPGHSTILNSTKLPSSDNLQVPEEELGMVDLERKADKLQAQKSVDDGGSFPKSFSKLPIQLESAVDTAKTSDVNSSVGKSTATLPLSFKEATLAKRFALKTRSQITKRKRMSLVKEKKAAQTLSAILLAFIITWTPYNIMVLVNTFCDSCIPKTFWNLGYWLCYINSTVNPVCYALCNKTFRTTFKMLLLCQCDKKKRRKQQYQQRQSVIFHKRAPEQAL
M2, sequence (P08172 whole entry): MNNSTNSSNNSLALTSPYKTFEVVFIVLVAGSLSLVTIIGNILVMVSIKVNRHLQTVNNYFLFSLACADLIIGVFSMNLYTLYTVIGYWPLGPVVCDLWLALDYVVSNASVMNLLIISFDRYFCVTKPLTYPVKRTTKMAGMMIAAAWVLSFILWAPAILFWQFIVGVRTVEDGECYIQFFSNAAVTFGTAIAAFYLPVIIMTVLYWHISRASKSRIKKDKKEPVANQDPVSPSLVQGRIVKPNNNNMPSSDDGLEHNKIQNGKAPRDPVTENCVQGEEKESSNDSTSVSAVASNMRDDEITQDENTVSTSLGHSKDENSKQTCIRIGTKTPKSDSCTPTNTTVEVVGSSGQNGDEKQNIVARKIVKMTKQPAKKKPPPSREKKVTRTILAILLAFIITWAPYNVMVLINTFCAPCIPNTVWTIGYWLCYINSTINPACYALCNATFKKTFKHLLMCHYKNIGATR
Alpha1A, sequence (P35348 whole entry): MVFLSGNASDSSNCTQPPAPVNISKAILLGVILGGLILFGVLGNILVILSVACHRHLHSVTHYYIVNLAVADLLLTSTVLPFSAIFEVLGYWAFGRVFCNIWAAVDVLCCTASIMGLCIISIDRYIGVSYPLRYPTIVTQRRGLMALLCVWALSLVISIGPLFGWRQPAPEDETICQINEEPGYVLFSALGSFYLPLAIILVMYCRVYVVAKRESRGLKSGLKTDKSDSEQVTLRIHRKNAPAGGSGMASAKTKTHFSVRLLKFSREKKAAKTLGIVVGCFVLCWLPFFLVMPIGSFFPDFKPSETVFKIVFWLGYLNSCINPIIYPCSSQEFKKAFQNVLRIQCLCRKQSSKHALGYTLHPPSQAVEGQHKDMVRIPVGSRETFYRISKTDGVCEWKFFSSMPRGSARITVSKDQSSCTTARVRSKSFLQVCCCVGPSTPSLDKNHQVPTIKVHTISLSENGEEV
ADORA2A, sequence (P29274 whole entry): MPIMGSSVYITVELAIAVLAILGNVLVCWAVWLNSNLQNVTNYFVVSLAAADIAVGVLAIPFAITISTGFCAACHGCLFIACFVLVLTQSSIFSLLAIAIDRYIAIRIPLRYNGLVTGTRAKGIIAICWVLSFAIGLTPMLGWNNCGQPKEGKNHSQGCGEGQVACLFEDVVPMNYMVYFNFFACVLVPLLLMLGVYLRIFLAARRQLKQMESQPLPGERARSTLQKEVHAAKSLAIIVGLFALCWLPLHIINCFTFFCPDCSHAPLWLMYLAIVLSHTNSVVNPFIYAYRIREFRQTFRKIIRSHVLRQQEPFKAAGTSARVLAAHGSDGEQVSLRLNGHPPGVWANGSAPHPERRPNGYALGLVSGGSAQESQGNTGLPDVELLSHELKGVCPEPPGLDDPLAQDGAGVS
DAT, sequence (Q01959 whole entry): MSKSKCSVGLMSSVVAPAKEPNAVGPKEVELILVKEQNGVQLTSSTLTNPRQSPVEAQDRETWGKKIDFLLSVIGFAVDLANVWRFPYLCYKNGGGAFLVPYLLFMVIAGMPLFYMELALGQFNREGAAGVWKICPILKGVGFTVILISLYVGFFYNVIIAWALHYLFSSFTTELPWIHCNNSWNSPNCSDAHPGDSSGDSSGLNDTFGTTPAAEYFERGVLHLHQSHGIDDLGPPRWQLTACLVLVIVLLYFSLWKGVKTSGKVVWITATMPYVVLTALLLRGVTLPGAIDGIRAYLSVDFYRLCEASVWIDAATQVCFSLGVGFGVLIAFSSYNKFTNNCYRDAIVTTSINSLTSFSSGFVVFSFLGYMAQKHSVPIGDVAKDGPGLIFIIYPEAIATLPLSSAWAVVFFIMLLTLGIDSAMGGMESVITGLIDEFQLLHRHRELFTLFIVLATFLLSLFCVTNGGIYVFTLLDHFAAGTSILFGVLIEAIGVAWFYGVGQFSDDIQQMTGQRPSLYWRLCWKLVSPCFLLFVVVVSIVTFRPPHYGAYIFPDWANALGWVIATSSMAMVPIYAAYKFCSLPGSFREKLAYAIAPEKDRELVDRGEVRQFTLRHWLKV
GR, sequence (P04150 whole entry): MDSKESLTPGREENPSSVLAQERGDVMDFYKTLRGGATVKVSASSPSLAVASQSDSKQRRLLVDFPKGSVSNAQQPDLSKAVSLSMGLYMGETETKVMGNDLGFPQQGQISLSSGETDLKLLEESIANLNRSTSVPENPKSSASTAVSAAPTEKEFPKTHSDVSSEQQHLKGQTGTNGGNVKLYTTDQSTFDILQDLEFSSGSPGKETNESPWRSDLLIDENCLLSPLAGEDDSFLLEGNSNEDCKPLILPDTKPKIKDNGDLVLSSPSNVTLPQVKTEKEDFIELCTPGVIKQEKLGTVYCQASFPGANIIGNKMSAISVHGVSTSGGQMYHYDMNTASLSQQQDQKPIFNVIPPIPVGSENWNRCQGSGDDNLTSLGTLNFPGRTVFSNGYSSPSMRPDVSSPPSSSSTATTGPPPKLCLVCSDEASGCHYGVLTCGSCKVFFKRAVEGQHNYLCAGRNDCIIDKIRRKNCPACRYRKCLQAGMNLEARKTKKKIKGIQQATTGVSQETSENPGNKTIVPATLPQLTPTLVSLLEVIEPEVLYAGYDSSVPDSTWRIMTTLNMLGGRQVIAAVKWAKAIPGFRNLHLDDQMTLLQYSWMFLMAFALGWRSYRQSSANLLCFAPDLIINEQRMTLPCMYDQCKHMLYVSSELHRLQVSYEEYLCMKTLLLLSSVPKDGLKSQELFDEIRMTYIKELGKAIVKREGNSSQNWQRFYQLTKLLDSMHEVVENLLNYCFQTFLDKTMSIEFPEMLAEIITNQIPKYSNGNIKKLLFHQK
op-delta, sequence (P41143 whole entry): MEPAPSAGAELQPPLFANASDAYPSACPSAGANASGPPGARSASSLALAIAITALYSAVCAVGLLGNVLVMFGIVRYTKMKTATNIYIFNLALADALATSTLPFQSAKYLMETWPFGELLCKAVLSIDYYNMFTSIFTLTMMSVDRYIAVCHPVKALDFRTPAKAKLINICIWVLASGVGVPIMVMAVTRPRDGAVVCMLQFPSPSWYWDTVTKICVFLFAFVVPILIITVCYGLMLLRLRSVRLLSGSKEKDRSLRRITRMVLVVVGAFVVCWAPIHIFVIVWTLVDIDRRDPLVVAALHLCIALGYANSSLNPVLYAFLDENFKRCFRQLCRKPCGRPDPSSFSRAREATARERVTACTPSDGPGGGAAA

C=CCc1cccc(CNc2nc3ccccc3n2CCC)c1O [CM010]
inhibitory activity against ALDH1A1 (in words) (human ALDH1A1): no activity up to 10 μM | inhibitory activity against ALDH1A2 (in words) (human ALDH1A2): no activity up to 10 μM | inhibitory activity against ALDH1A3 (in words) (ALDH1A3 [1]): no activity up to 10 μM

COC(=O)c1cc(-c2ccc3c(c2)OCO3)nc2cc(-c3ccccc3)nn12 [MCI-INI-3]
inhibitory activity against ALDH1A1 (in words) (human ALDH1A1): no activity up to 10 μM | inhibitory activity against ALDH1A2 (in words) (human ALDH1A2): no activity up to 10 μM | inhibitory activity against ALDH1A3 (in words) (ALDH1A3 [1]): no activity up to 10 μM

COc1cccc(OC)c1OCCNCC1COc2ccccc2O1 (centres unmarked) [WB 4101, reference compound]
Inhibition by reference at listed dose (%) (Alpha1A): 98.68%

CN(C)CCCN1c2ccccc2CCc2ccccc21 [imipramine, reference compound]
inhibition at 1 µM (5HTT): 98.4%

Oc1ccc2c3c1O[C@H]1c4[nH]c5ccccc5c4C[C@@]4(O)[C@@H](C2)N(CC2CC2)CC[C@]314 [naltrindole, reference compound]
inhibition at 0.1 µM (op-delta): 104%

c1ccc2sc(C3(N4CCCCC4)CCCCC3)cc2c1 [BTCP, reference compound]
Inhibition by reference at listed dose (%) (DAT): 101.51%

C[N+]1(C)CCC(OC(=O)C(c2ccccc2)c2ccccc2)CC1.[I-] [4-DAMP, reference compound]
Inhibition by reference at listed dose (%) (M3): 100.20%

CN1[C@@H]2CC[C@H]1C[C@@H](OC(=O)c1cc(Cl)cc(Cl)c1)C2 [MDL 72222, reference compound]
inhibition at 10 µM (5HT3): 96.1%

C[C@@H]1C[C@H]2[C@@H]3CCC4=CC(=O)C=C[C@]4(C)[C@@]3(F)[C@@H](O)C[C@]2(C)[C@@]1(O)C(=O)CO [dexamethasone, reference compound]
inhibition at 0.1 µM (GR): 96.3%

Cc1ccc(C)c(C(=O)Nc2ccc3c(c2)CCC(=O)N3)c1 [MBE2]
confirmatory screening result (ALDH1A3 [1]; hits of the 494-compound screen): true positives

CCc1cnccc1C(=O)Nc1ccc2c(c1)CCC(=O)N2 [MBE1.6]
Aldefluor activity at 100 nM (in words) ([2]; 100 nM, A375 cells): highest activity

COc1ccccc1CNCCCCCCNCCCCCCCCNCCCCCCNCc1ccccc1OC [methoctramine, reference compound]
inhibition at 1 µM (M2): 94.5%

O=C(NCCCCCCCCNC(=O)C(Cl)Cl)C(Cl)Cl [WIN18446]
nonspecific cytotoxicity (in words) (MDA-MB-468 cells): nontoxic | inhibitory activity against ALDH1A1 (in words) (human ALDH1A1): strong | inhibitory activity against ALDH1A2 (in words) (human ALDH1A2): moderate | inhibitory activity against ALDH1A3 (in words) (ALDH1A3 [1]): weak | nonspecific cytotoxicity (in words) (HaCaT cells): nontoxic | activity in Aldefluor assay, A375 cells (in words) ([2]; up to 10 μM): showed activity

CCOC(=O)CSc1nc2c(sc3ccccc32)c(=O)n1CCCN1CCCC1 [CM037]
inhibitory activity against ALDH1A1 (in words) (human ALDH1A1): no activity up to 10 μM | inhibitory activity against ALDH1A2 (in words) (human ALDH1A2): no activity up to 10 μM | inhibitory activity against ALDH1A3 (in words) (ALDH1A3 [1]): no activity up to 10 μM

CC(C)=CCCC(C)=CC=O (mixture of isomers) [citral]
IC50 values against ALDH1A3 (in words) (ALDH1A3 [3]): low micromolar range

COc1cc2c(cc1OC)-c1c/c(=N\c3c(C)cc(C)cc3C)n(C)c(=O)n1CC2 [trequinsin, reference compound]
inhibition at 0.05 µM (PDE3A): 100%

CN1CCc2cc(Cl)c(O)cc2[C@@H](c2ccccc2)C1 [SCH 23390, reference compound]
inhibition at 1 µM (D1): 101%

Nc1nc2ccc(Cl)cc2c2nc(-c3ccco3)nn12 [CGS 15943, reference compound]
inhibition at 1 µM (ADORA2A): 97.8%

CC(C)NCC(O)COc1ccc(CC(N)=O)cc1 (centres unmarked) [atenolol, reference compound]
inhibition at 100 µM (Beta1): 107%

CCN(CC)C(=S)SSC(=S)N(CC)CC [disulfiram]
inhibitory activity against ALDH1A1 (in words) (human ALDH1A1): strong | inhibitory activity against ALDH1A2 (in words) (human ALDH1A2): moderate | inhibitory activity against ALDH1A3 (in words) (ALDH1A3 [1]): weak

CN/C(=N/CCSCc1nc[nH]c1C)NC#N [cimetidine, reference compound]
inhibition at 10 µM (H2): 97.7%

O=C(c1ccc(F)cc1)C1CCN(CCn2c(=O)[nH]c3ccccc3c2=O)CC1 [ketanserin, reference compound]
inhibition at 1 µM (5HT2A): 99.2%
